Active and inactive are the calls of the source. No cut-off for these calls is given here.
Experiments:
MDA-MB-231 [1] = experiment: Induction of apoptosis in human MDA-MB-231 cells assessed as total apoptotic cells measured at 5 uM after 48 hrs by FITC-Annexin-V and propidium iodide based flow cytometric analysis (reference value: 6.2%); type: functional
MX1 [2] = experiment: Induction of cell cycle arrest in human MX1 cells assessed as decrease in accumulation of cells at S phase at 0.5 to 2 uM measured after 24 hrs by propidium iodide staining based FACS calibur flow cytometeric analysis; type: functional; settings: dose 0.5-2 µM
MDA-MB-231 [3] = experiment: Antitumor activity against human MDA-MB-231 cells xenografted in BALBC mouse assessed as inhibition of tumor growth at 24 mg/kg, ip administered every 3 days for 21 days relative to control; type: functional; settings: MDA-MB-231, 504 h, time 21 day, read-out: TGI
MX1 [4] = experiment: Induction of apoptosis in human MX1 cells assessed as viable cells measured at 1 uM after 48 hrs by FITC-Annexin-V and propidium iodide based flow cytometric analysis (reference value: 88.4%); type: functional; settings: read-out: Activity
MX1 [5] = experiment: Induction of apoptosis in human MX1 cells assessed as necrotic cells measured at 0.5 uM after 48 hrs by FITC-Annexin-V and propidium iodide based flow cytometric analysis (reference value: 0.055 %); type: functional
MX1 [6] = experiment: Induction of apoptosis in human MX1 cells assessed as late apoptotic cells measured at 2 uM after 48 hrs by FITC-Annexin-V and propidium iodide based flow cytometric analysis (reference value: 5.24%); type: functional
MDA-MB-231 [7] = experiment: Inhibition of PI3K/Akt signaling in human MDA-MB-231 cells assessed as decrease in total Akt expression level incubated for 24 hrs by Western blotting analysis; type: cell-based
MX1 [8] = experiment: Induction of morphological changes in human MX1 cells assessed as decrease in cell size at 0.5 to 2 uM measured after 24 hrs by bright field inverted microscopic analysis; type: functional, cell-based; settings: dose 0.5-2 µM
MDA-MB-231 [9] = experiment: Induction of apoptosis in human MDA-MB-231 cells assessed as viable cells measured at 0.5 uM after 48 hrs by FITC-Annexin-V and propidium iodide based flow cytometric analysis (reference value: 94.4% ); type: functional; settings: read-out: Activity
MDA-MB-231 [10] = experiment: Induction of apoptosis in human MDA-MB-231 cells assessed as increase in cleaved PARP expression at 0.5 to 2 uM by Western blotting analysis; type: functional, cell-based; settings: dose 0.5-2 µM
MDA-MB-231 [11] = experiment: Antiproliferative activity against human MDA-MB-231 cells assessed as reduction in cell viability after 96 hrs by MTT assay; type: functional, cell-based; settings: MDA-MB-231, 96 h
MDA-MB-231 [12] = experiment: Induction of cell cycle arrest in human MDA-MB-231 cells assessed as accumulation of cells at G0/G1 phase incubated for 24 hrs by propidium iodide staining based FACS calibur flow cytometeric analysis; type: functional; settings: dose 0.5-2 µM
MDA-MB-231 [13] = experiment: Induction of apoptosis in human MDA-MB-231 cells assessed as necrotic cells measured at 5 uM after 48 hrs by FITC-Annexin-V and propidium iodide based flow cytometric analysis (reference value: 0.253 %); type: functional
MX1 [14] = experiment: Induction of apoptosis in human MX1 cells assessed as necrotic cells measured at 1 uM after 48 hrs by FITC-Annexin-V and propidium iodide based flow cytometric analysis (reference value: 0.055 %); type: functional
MX1 [15] = experiment: Induction of cell cycle arrest in human MX-1 cells assessed as accumulation of cells at G0/G1 phase incubated for 24 hrs by propidium iodide staining based FACS calibur flow cytometeric analysis; type: functional; settings: dose 0.5-2 µM
MDA-MB-231 [16] = experiment: Antitumor activity against human MDA-MB-231 cells xenografted in BALBC mouse assessed as inhibition of tumor growth at 75 mg/kg, IG administered every 3 days for 21 days relative to control; type: functional; settings: MDA-MB-231, po, 504 h, time 21 day, read-out: TGI
MDA-MB-231 [17] = experiment: Induction of apoptosis in human MDA-MB-231 cells assessed as late apoptotic cells measured at 0.5 uM after 48 hrs by FITC-Annexin-V and propidium iodide based flow cytometric analysis (reference value: 2.68%); type: functional
MDA-MB-231 [18] = experiment: Induction of apoptosis in human MDA-MB-231 cells assessed as late apoptotic cells measured at 2 uM after 48 hrs by FITC-Annexin-V and propidium iodide based flow cytometric analysis (reference value: 2.68%); type: functional
MDA-MB-231 [19] = experiment: Induction of cell cycle arrest in human MDA-MB-231 cells assessed as increase in CDK6 expression at 0.5 to 2 uM by Western blotting analysis; type: functional, cell-based; settings: dose 0.5-2 µM, time 24.0 hrs
EMT6 [20] = experiment: Antitumor activity against mouse EMT6 cells allografted in BALBC mouse assessed as reduction in tumor progression at 150 mg/kg, IG administered every 3 days for 21 days; type: functional, organism-based; settings: time 21.0 day
MX1 [21] = experiment: Induction of apoptosis in human MX1 cells assessed as early apoptotic cells measured at 2 uM after 48 hrs by FITC-Annexin-V and propidium iodide based flow cytometric analysis (reference value: 6.30%); type: functional
MDA-MB-231 [22] = experiment: Induction of morphological changes in human MDA-MB-231 cells assessed as decrease in cell number at 0.5 to 2 uM measured after 24 hrs by bright field inverted microscopic analysis; type: functional, cell-based; settings: dose 0.5-2 µM
MDA-MB-231 [23] = experiment: Induction of morphological changes in human MDA-MB-231 cells assessed as decrease in cell size at 0.5 to 2 uM measured after 24 hrs by bright field inverted microscopic analysis; type: functional, cell-based; settings: dose 0.5-2 µM
MDA-MB-231 [24] = experiment: Inhibition of PI3K/Akt signaling in human MDA-MB-231 cells assessed as decrease in phosphorylated S6 expression incubated for 24 hrs by Western blotting analysis; type: cell-based; settings: dose 0.5-2 µM
MX1 [25] = experiment: Induction of apoptosis in human MX1 cells assessed as necrotic cells measured at 2 uM after 48 hrs by FITC-Annexin-V and propidium iodide based flow cytometric analysis (reference value: 0.055 %); type: functional
MDA-MB-231 [26] = experiment: Induction of apoptosis in human MDA-MB-231 cells assessed as early apoptotic cells measured at 1 uM after 48 hrs by FITC-Annexin-V and propidium iodide based flow cytometric analysis (reference value: 2.71%); type: functional
MX1 [27] = experiment: Induction of apoptosis in human MX1 cells assessed as viable cells measured at 2 uM after 48 hrs by FITC-Annexin-V and propidium iodide based flow cytometric analysis (reference value: 88.4%); type: functional; settings: read-out: Activity
EMT6 [28] = experiment: Antitumor activity against mouse EMT6 cells allografted in BALBC mouse a assessed as reduction in tumor growth inhibition at 150 mg/kg, IG administered every 3 days for 21 days relative to control; type: functional; settings: EMT6, po, 504 h, time 21 day, read-out: TGI
MX1 [29] = experiment: Induction of apoptosis in human MX1 cells assessed as necrotic cells measured at 5 uM after 48 hrs by FITC-Annexin-V and propidium iodide based flow cytometric analysis (reference value: 0.055 %); type: functional
MDA-MB-231 [30] = experiment: Inhibition of PI3K/Akt signaling in human MDA-MB-231 cells assessed as decrease in phosphorylated Akt expression level incubated for 24 hrs by Western blotting analysis; type: cell-based; settings: dose 0.5-5 µM
[31] = Toxicity in BALBC mouse allografted with mouse EMT6 cells assessed as weight loss at 50 to 150 mg/kg, IG administered every 3 days for 21 days; type: organism-based; settings: in vivo, po, 504 h, dose 50-150 mg/kg, time 21 day
MX1 [32] = experiment: Induction of apoptosis in human MX1 cells assessed as upregulation of Bax by Western blotting analysis; type: functional, cell-based; settings: dose 0.5-2 µM

In the case of `CC1(C)C=Cc2c(c(/C=C/C(=O)NCCOc3no[n+]([O-])c3S(=O)(=O)c3ccccc3)cc3c2[nH]c2ccc(C(C)(C)C)cc23)O1`, the Activity (MDA-MB-231 [1]) is reported as 71.2%, the Activity (MX1 [2]) is reported as “Active” and the inhibition in vivo at 24 mg/kg (MDA-MB-231 [3]) is reported as 84.3%. It also gave a viability at 1 µM (MX1 [4]) of 43.5%, an Activity (MX1 [5]) of 0.202% and an Activity (MX1 [6]) of 2.83%. For the same molecule, the inhibition (MDA-MB-231 [7]) was “inactive”, the Activity (MX1 [8]) was “Active” and the viability at 0.5 µM (MDA-MB-231 [9]) was 92.4%. The Activity (MDA-MB-231 [10]) was “Active”, the IC50 (MDA-MB-231 [11]) was 50 nM and the Activity (MDA-MB-231 [12]) was “Dose-Dependent Effect”. The Activity (MDA-MB-231 [13]) was 0.867%, the Activity (MX1 [14]) was 0.193% and the Activity (MX1 [15]) was “Dose-Dependent Effect”. For the same molecule, the inhibition in vivo at 75 mg/kg (MDA-MB-231 [16]) was 30%, the Activity (MDA-MB-231 [17]) was 3.85% and the Activity (MDA-MB-231 [18]) was 12.8%. For the same molecule, the Activity (MDA-MB-231 [19]) was “Active”, the Activity (EMT6 [20]) was “Active” and the Activity (MX1 [21]) was 85.3%. For the same molecule, the Activity (MDA-MB-231 [22]) was “Active”, the Activity (MDA-MB-231 [23]) was “Active” and the inhibition (MDA-MB-231 [24]) was “Active”. For the same molecule, the Activity (MX1 [25]) was 0.043%, the Activity (MDA-MB-231 [26]) was 3.76% and the viability at 2 µM (MX1 [27]) was 11.9%. The inhibition in vivo at 150 mg/kg (EMT6 [28]) was 50.1%, the Activity (MX1 [29]) was 0.276% and the inhibition (MDA-MB-231 [30]) was “Dose-Dependent Effect”. For the same molecule, the Activity [31] was “Non-Toxic” and the Activity (MX1 [32]) was “Dose-Dependent Effect”.
